Assay results: patent publication US20200054271A1, “COMPUTER-BASED LIVER MODEL” (priority 2017, published 2020)

How the values were obtained:
[1] = system: bile canaliculi (BC) network; experiment: BC network geometry (BC radius) from 3D reconstruction of CD13-stained fixed liver tissue sections; type: in vivo, mouse
Procedure: (§1) As controls, mice were administered 0.9% saline.
All steps were performed at room temperature.
Fixed tissue was imaged with a Zeiss laser scanning microscope 780 NLO using a 63×1.3 numerical aperture (NA) glycerol immersion objective (Zeiss), a Chameleon Ti-Sapphire 2-photon laser (780 nm), 488 and 561 laser lines and Gallium arsenide phosphide (GaAsp) detectors.
3D reconstructions of the BC network were performed on high-resolution IF image stacks of fixed liver tissue stained for the apical marker CD13 (voxel size: 0.28×0.28×0.3 μm, 70-80 μm in depth). A tile of 2×1 image stacks was stitched to cover an entire CV-PV axis. Images were processed, analyzed and reconstructed using the software MotionTracking as described in (Morales-Navarrete et al., 2015). In brief, images were segmented using a local thresholding algorithm (maximum entropy), segmented objects were corrected for artefacts using standard morphological operations (opening/closing) and the triangulation mesh of the segmented surfaces was generated by the cube marching algorithm. The active mesh was tuned to align the triangle mesh vertexes to the maximum gradient of fluorescence intensity in the original image. A representation of the skeletonized image was generated using a 3D graph describing the geometrical and topological features of the BC network. For the spatial analysis of BC radius, porosity and network density, the CV-PV axis was computationally divided into 20 equidistant zones based on the distance dof each position x from the CV (dCV) and PV (dPV):
Then, the average radius and porosity was determined per zone. For the radius, the minimal distance of each node of the central line of the BC network was quantified in the xy-plane. For the BC network density, the network length per tissue volume was calculated. For the tissue porosity, […]

[2] = system: bile flow in the BC network; experiment: Bile velocity and apical CF transport by intravital microscopy (IVM) of CF(DA) transport with 3-compartment model; type: in vivo, mouse
Procedure: as §1
The objective was heated to 37° C.
Quantification of the CF intensity in the hepatocyte cytoplasm and BC from IVM movies was performed using the image analysis software MotionTracking. Following correction for shift, IVM movies contained 16-21 frames per stack, covering 15-20 μm in z. To avoid liver damage from photo-toxicity, IVM movies were acquired with minimum laser intensities resulting in low signal-to-noise ratio. […] Therefore, we used the modified Mean-Shift algorithm to separate the CF fluorescence from the background. The result of the background/foreground discrimination was checked manually. The BC were detected in three steps. First, the image was convolved with Laplacian of Gaussian. Second, pixels with an intensity >2 standard deviations of the local noise were defined as potential BC. The local noise was determined from the local intensity minimums in at least one of 4 discrete directions. Third, along the line of the local maximum intensity direction of a BC, pixels that co-localized with sharp intensity transitions between the cytoplasm and sinusoids were excluded from the BC compartment. For all compartments (cytoplasm, BC and background), the mean intensity was calculated. To avoid mixing of compartments from light scattering of bright objects (BC to cytoplasm and cytoplasm to background), the area within the radius of 2 pixels from the object border was excluded from the calculation.
The transport of CF(DA) from the blood into and through the biliary network was described in a mathematical model that considers 3 hepatic compartments: the blood (s), hepatocytes cytoplasm (c) and bile canaliculi (b) (see FIG. 2F). Dye propagation through these three compartments was modelled for three spatially distinct zones within the liver lobule: The CV, MD and PV zone as defined in FIG. 2C. The different zone geometries of the kite-shaped CV-PV axis were accounted for by introducing respective geometry factors. The model considers that only a fraction of the injected CFDA is delivered to the liver, whereas the rest is cleared by other tissues at rate κclear. The injection of CFDA into the blood circulation is described by Pulse(t). It is defined by the time point of injection start (τ1) and the injection duration (τ2) assuming that CFDA is injected with constant rate in time t>τ1 and <τ1+τ2. Both τ1 and τ2 were fitted by the model with boundary intervals 40-80 sec (τ1) and 20-60 sec (τ2). In the liver, the model considers that CFDA is taken up from the blood with a permeability coefficient Perm=3 sec^−1 (according to (Breeuwer et al., 1995), considering a mammalian plasma membrane thickness of 4 nm), converted into CF by cytoplasmic esterases with cleavage rate κcleav and secreted by apical transporters with transporter activity κpump. To account for the spatial heterogeneity of esterase and transporter levels within the CV-PV axis, the amounts of both esterases (qi) and apical transporters (q1i) were determined for each zone (i=cv, md, pv). The model further considers passive back flux of CF from the BC into the hepatocyte cytoplasm at rate κli. The bile canaliculi compartment of the three zones is connected, occurs unidirectional and sequential from the CV to the MD with transport rate
Bile flow velocity vi at the interfaces of the lobule zones was estimated from the volume flux rates
considering the size of the zone volumes V and zone boundaries Ai (i=cv, md, pv) as well as a CV-PV axis distance L of 229 μm: […]

[3] = from the literature; cited from earlier work
[4] = mouse, in vivo, iv
Procedure: Mouse anaesthesia was induced with 3-4% isoflurane/0.3% oxygen and maintained by i.p. injection of ketamine/xylazine throughout the experiment. Mice received 20 U of heparin dissolved in 0.9% (w/v) NaCl by i.p. injection to prevent ischemia of the liver during the course of imaging. To visualize hepatocyte nuclei, Hoechst 33258 dissolved in 0.9% (w/v) NaCl was administered retro-orbitally at a dose of 2 mg/kg and in a total volume of 50 μl. To expose the liver for imaging, the abdominal fur was removed using an electric shaver and a small transversal incision of 1 cm was made at the height of the sternum to expose the left lateral liver lobe using a surgical scissor and cauterizer. The mouse was positioned on the stage of an IX81 inverted confocal microscope equipped with a Fluoview 1000 scanning head (Olympus America) and a heat-adjustable UPLSAPO30X, 30×1.05 NA silicon oil objective (Olympus). The objective was heated to 37° C. To avoid compression of the liver lobe and to stabilize the tissue, the stage was designed with a small hole in the center into which the left lateral lobe was carefully placed. The residual volume of the hole was filled with a water based and transparent 1% carbomer gel (0.3 M Sorbitol, 1% (w/v) Carbomer 940, polymerized by addition of triethanolamine and adjusted to pH 7) to immobilize the organ and prevent the organ from drying out. The bottom of the hole was designed with a coverslide through which the organ was accessible for imaging. The animal body temperature was kept at 37° C. using a red lamp. Prior to imaging start, 18 mg/kg of 70 kDa Rhodaminedextran or 20 μl of Qtracker 655 vascular label dissolved in 0.9% (w/v) NaCl was injected retro-orbitally to identify the lobule orientation from the vascular flow pattern. To monitor the flux of CFDA in the liver, CFDA, dissolved in dimethyl sulfoxide (DMSO), was injected retro-orbitally at a dose of 0.2 mg/kg in a total volume of 50 μl. CFDA injection was performed slowly (approx. 30 sec) to avoid hydrodynamic effects and performed at 1 min after image acquisition start. […]

[5] = according to Breeuwer et al., 1995, considering a plasma membrane thickness of 4 nm; cited from earlier work
[6] = system: phosphorylated myosin light chain (pMLC); experiment: Western blot of phosphorylated myosin light chain in liver tissue of treated mice; type: in vivo; conditions: 20 mg/kg Fasudil for 1.5 h, mouse liver
Procedure: As controls, mice were administered 0.9% saline. […] Cell debris were removed by centrifugation for 10 min at 12 000×g at 4° C. and protein was denatured at 95° C. in presence of 100 mM dithiothreitol (DTT). A total of 10 μg protein was separated by sodium dodecyl sulfate polyacrylamide gel electrophoresis, and transferred onto a nitrocellulose membrane. Membranes were blocked and incubated with primary antibodies against glyceraldehyde 3-phosphate dehydrogenase (GAPDH, 1:2000) or phospho-myosin light chain (pMLC, 1:500) and HRP-conjugated secondary antibodies (1:10000) in 5% dry-milk, 10 mM Tris-HCl pH 8.0, 200 mM NaCl, 0.1% Tween20. Protein was detected using the enhanced chemiluminescence (ECL) detection kit (GE Healthcare, Buckinghamshire, UK) and chemiluminescence films (GE Healthcare, Buckinghamshire, UK) according to manufacturer's instructions. Plasma membrane contractility is determined by the cortical acto-myosin system ([…] et al., 2016; Tsukada and Phillips, 1993). […] Consequently, inhibition of acto-myosin contractility should affect biliary fluid dynamics. […] We next analyzed the BC network geometry on fixed liver tissue sections and found a dilation of BC in Fasudil-treated mice (FIG. 5B).

[7] = APAP 150 mg/kg i.p., 2 h, IVM of CF(DA) transport

In the case of CC(=O)Nc1ccc(O)cc1 [APAP, acetaminophen], the “dilation of BC, CV zone” value ([1]; APAP 150 mg/kg i.p., 2 h, immersion fixed, CV zone, pvalue<0.01) is reported as “up to 20%”, the “dilation of BC, MD zone” value ([1]; APAP 150 mg/kg i.p., 2 h, immersion fixed, MD zone, pvalue<0.0001) is reported as no more than 18% and the “bile velocity in the peri-portal zone” value [2, 7] is reported as “remained almost unaffected”. The “measured increase in bile velocity in the CV and MD zones” value [2, 7] was 1.4-1.6 fold, the “effects on osmolite secretion” value ([2]; APAP treatment) was “marginal” and the “maximum reported sub-toxic dose” value [3] was 150 mg/kg.
For O=C(O)c1ccc2c(c1)C1(OC2=O)c2ccc(O)cc2Oc2cc(O)ccc21 [CF, 6-carboxyfluorescein], the “time until cleared from the system” value [4] was roughly 40 min and the “time until visible in the BC network” value [4] was 3 to 5 min.
For CC(=O)Oc1ccc2c(c1)Oc1cc(OC(C)=O)ccc1C21OC(=O)c2ccc(C(=O)O)cc21 [CFDA, 6-carboxyfluorecein-diacetate], the “time until detectable in the hepatocyte cytoplasm” value [4] is given as “within seconds” and the “permeability coefficient Perm for uptake from the blood” value [5] is given as 3 s⁻¹.
For O=S(=O)(c1cccc2cnccc12)N1CCCNCC1 [Fasudil], the “phosphorylated myosin light chain (pMLC) protein levels” value [6] was “reduction”, the “BC radius increase as compared to control mice, MD zone” value ([1]; Fasudil 20 mg/kg i.p., 1.5 h, MD zone, pvalue<0.0001) was “up to 12%” and the “BC radius increase as compared to control mice, PV zone” value ([1]; Fasudil 20 mg/kg i.p., 1.5 h, PV zone, pvalue<0.001) was no more than 7%. For the same molecule, the “extrapolated BC radius at x=L, at(L)” value ([1]; Fasudil-treated mice, apparent radius at portal outlet) was 1.422 μm, the “reduction of bile velocity across the CV-PV axis as compared to control mice” value ([2]; Fasudil 20 mg/kg i.p., 1.5 h, IVM of CF(DA) transport) was 50-58% and the “apical CF transport” value ([2]; Fasudil-treated mice, IVM) was “reduction”. The “apical secretion fluxes summed over the entire CV-PV axis, Jt” value ([2]; Fasudil-treated, t=500 sec) was 0.0390 arbitrary intensity units per time, the “apical secretion flux of CF, CV zone” value ([2]; Fasudil-treated, t=500 sec, CV zone) was 0.0019 arbitrary intensity units per time and the “apical secretion flux of CF, MD zone” value ([2]; Fasudil-treated, t=500 sec, MD zone) was 0.0312 arbitrary intensity units per time. For the same molecule, the “apical secretion flux of CF, PV zone” value ([2]; Fasudil-treated, t=500 sec, PV zone) was 0.0059 arbitrary intensity units per time.
